Read-outs that look alike come from different tables or passages of the source.
What was measured:
CB2 receptor = target: T1, CB2 receptor (Homo sapiens, UniProt P34972); assay: cAMP assay (HitHunter) in CHO-K1-CB2 cells, agonist and antagonist modes; format: cell-based; conditions: for CB2 Mode of action: CHO-K1-CB2 cells, forskolin 20 μM, NA = no activity; for EC50 / CB2 Efficacy (%): agonist or antagonist mode; for EC50: antagonist mode against CP-55940 at EC90; for CB2 Efficacy (%): percentage of the response to CP-55940
T1 construct: host or cells: CHO-K1-CB2

CB1 receptor = target: T2, CB1 receptor (Homo sapiens, UniProt P21554); assay: cell-based; format: cell-based
T2 construct: host or cells: CHO-K1-CB1

human CB2 receptors = target: human CB2 receptors; parameters: method as in PMID 28861508; conditions: reference standard contaminated with 2% Δ9-THC; read-out: approximate Ki at human CB2; cited from earlier work
human CB1 = target: human CB1; parameters: method as in PMID 28861508; conditions: reference standard contaminated with 2% Δ9-THC; read-out: approximate Ki at human CB1; cited from earlier work
[1] = percentage of the response to CP-55940, agonist or antagonist mode

T2 sequence (P21554 whole entry): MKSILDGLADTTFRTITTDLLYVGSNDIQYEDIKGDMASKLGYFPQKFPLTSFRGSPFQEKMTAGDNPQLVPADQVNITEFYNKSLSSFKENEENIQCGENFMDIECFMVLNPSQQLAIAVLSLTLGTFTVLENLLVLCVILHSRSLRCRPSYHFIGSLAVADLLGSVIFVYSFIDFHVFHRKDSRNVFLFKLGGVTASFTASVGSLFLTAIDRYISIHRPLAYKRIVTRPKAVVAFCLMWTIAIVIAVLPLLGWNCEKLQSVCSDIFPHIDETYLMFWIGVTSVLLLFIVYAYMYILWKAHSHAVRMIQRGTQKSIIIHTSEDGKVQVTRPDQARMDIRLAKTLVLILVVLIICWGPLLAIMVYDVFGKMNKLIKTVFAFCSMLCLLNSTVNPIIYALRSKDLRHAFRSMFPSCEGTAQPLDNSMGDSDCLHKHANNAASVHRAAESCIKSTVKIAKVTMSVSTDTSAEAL
T1 sequence (P34972 whole entry): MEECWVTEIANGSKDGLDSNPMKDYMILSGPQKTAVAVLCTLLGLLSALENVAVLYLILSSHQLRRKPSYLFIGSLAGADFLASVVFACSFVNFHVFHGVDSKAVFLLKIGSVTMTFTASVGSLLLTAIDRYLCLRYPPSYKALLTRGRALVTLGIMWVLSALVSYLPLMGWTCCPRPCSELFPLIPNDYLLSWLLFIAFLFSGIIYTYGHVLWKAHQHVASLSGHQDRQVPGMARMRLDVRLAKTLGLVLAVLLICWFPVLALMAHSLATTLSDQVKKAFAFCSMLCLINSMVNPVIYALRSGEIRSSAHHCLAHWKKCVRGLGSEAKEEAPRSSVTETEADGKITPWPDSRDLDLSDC

Row | Compound | CB2 Mode of action (CB2 receptor) | EC50 (CB2 receptor; read-out: CB2 EC50) | CB2 Efficacy (%) (CB2 receptor) | CB1 Mode of action (CB1 receptor; CHO-K1-CB1 cells, forskolin 20 μM, NA = no activity) | CB1 Efficacy (%) (CB1 receptor; [1]) | EC50 (CB1 receptor) | fold weaker than CBD at CB2 receptor as an antagonist (CB2 receptor; comparison of EC50 values) | CB1 Efficacy (%) (CB1 receptor) | CB1 Mode of action (CB1 receptor) | Ki (human CB2 receptors) | Ki (human CB1) | EC50 (CB2 receptor; CB2 EC50 (μM))
1 | COc1ccc(C(=O)c2c(C)n(CCN3CCOCC3)c3cc(I)ccc23)cc1 [AM-630] | Antagonist | 0.146 ± 0.084 µM | 100% |  |  |  |  |  |  |  |  | 
2 | C=C(C)[C@@H]1CCC(C)=C[C@H]1c1c(O)cc(CCCCC)cc1O [CBD, cannabidiol, reference compound] | Antagonist |  | 100% | Antagonist | 40% |  |  |  |  |  |  | 
3 | C=C(C)[C@@H]1CCC(C)=C[C@H]1c1c(O)cc(CCCCC)c(C(=O)O)c1O [CBDA, cannabidiolic acid] |  | > 100 µM | −23% |  | 0% | > 10 µM | more than 10 fold |  |  |  |  | 
4 | CCCCCCC(C)(C)c1ccc([C@@H]2C[C@H](O)CC[C@H]2CCCO)c(O)c1 [CP-55940, reference compound] | Agonist |  | 100% |  |  |  |  | 100% | Agonist |  |  | 
5 | CCCCCc1cc(O)c2c(c1)OC(C)(C)[C@@H]1CCC(C)=C[C@@H]21 [Δ^9-THC, Δ^9-tetrahydrocannabinol] | Weak partial agonist |  | 20% |  |  |  |  |  |  |  |  | 
6 | CCCCCc1cc2c(c(O)c1C(=O)O)[C@@H]1C=C(C)CC[C@H]1C(C)(C)O2 [Δ^9-THCA, Δ^9-tetrahydrocannabinolic acid] | Weak agonist |  | 100% |  |  | 1.8 ± 0.7 µM |  | 100% | Weak agonist | ~12.5 µM | ~3.1 µM | 30 ± 15 µM
